Measured values reported in patent publication US10335409B2 (priority 2012, dated 2019).
Read-outs that look alike come from different tables or passages of the source.

Experiments:
[1] = target: HCV NS3 protease domain genotype 1b (Hepatitis C virus genotype 1b (isolate Con1), UniProt Q9WMX2, E1202G); assay: Ki determination, NS3 protease genotype 1b (fluorogenic depsipeptide substrate); assay type: biochemical; settings: 50 pM enzyme, NS4A peptide
Procedure: Purified NS3 protease domain (amino acids 1-181) of the genotype 1b and 3a virus were generated as above.
Reactions were run at room temperature in buffer consisting of 50 mM HEPES, 40% glycerol, 0.05% Triton X-100, 10 mM DTT, and 10% DMSO. The final assay solutions contained 50 pM NS3 genotype 1 b protease or 200 pM genotype 3a protease, 20 μM NS4A peptide, and 4 μM substrate (genotype 1b) or 2 μM substrate (genotype 3a). Inhibitor concentrations varied from 100 nM to 5 pM in 3-fold dilutions, and no-inhibitor controls were included.
Compound dilutions were made in DMSO at 20× final concentration. Reaction mixtures were prepared in 96-well assay plates. A solution of enzyme and NS4A peptide in assay buffer (25 μL volume with both reagents at 4× final concentration) was mixed with 45 μL assay buffer and 5 μL of either inhibitor or DMSO, and pre-incubated at room temperature for 1 hour. The reaction was started by addition of 25 μL substrate solution at 4× final concentration. Plates were mixed vigorously for 5-10 seconds and reactions were allowed to proceed for 90 minutes, fluorescence was measured every 30 s between 90 and 120 minutes reaction time using a Tecan InfiniTe M1000 or PerkinElmer Envision multimode plate reader with an excitation wavelength of 340 nm and an emission wavelength of 490 nm.
To determine the Ki, rates were plotted as a function of inhibitor concentration, and the data were fit with equation 1 (Morrison, J. F., Biochimica et Biophysica Acta 1969, 185, 269-286) to calculate Ki^app using GraphPad Prism 5. […] Ki was calculated from Ki^app/(1+[[S]/Km]).

[2] = test system: genotype 4a (ED43) stable HCV replicon in Huh-7-derived cells; assay: Stable subgenomic HCV replicon EC50, genotype 4a (Renilla luciferase); assay type: cell-based, hepatitis C virus; settings: 72 h, read-out: EC50 4A RLUC
Procedure, shortened: (§1)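 Compounds, three-fold diluted, were applied to Huh-7-derived cells harbouring luciferase replicons (genotype 1a H77, 1b Con1, 2a JFH-1, 4a ED43, with strain-specific adaptive mutations). Seventy-two hours later, intracellular replication was gauged by Renilla luciferase activity and EC50 derived by regression.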

[3] = test system: genotype 3a (S52) wild type transient HCV replicon in Huh-7-derived cells; assay: Transient-transfected HCV replicon EC50, genotype 3a wild type; assay type: cell-based, hepatitis C virus; settings: transient-transfected replicon genotype 3a wild type, 72 h, read-out: EC50 3A WT
[4] = target: HCV NS3 protease domain genotype 3a (Hepatitis C virus genotype 3a, UniProt Q81258); assay: Ki determination, NS3 protease genotype 3a (fluorogenic depsipeptide substrate); assay type: biochemical; settings: 200 pM enzyme, NS4A peptide
Procedure, shortened: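 The NS3 protease domain (aa 1-181) with 20 μM NS4A peptide was used at 50 pM with 4 μM substrate (1b) or at 200 pM with 2 μM substrate (3a). Inhibitors (100 nM-5 pM) were pre-incubated 1 h at room temperature in HEPES/glycerol/DTT buffer with 10% DMSO. Steady-state rates (90-120 min) gave Ki via the Morrison equation, corrected for active enzyme and [S]/Km.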

[5] = test system: genotype 2a (JFH-1) stable HCV replicon in Huh-7-derived cells; assay: Stable subgenomic HCV replicon EC50, genotype 2a (Renilla luciferase); assay type: cell-based, hepatitis C virus; settings: stable replicon genotype 2a, 72 h, read-out: EC50 2A RLUC
Procedure, shortened: as §1

[6] = test system: genotype 1b (Con1) wild type transient HCV replicon in Huh-7-derived cells; assay: Transient-transfected HCV replicon EC50, genotype 1b wild type; assay type: cell-based, hepatitis C virus; settings: 72 h, transient-transfected replicon genotype 1b wild type, read-out: EC50 1B WT
[7] = test system: genotype 1a NS3/4a protease inhibitor resistant variant R155K transient HCV replicon in Huh-7-derived cells; assay: Transient-transfected HCV replicon EC50, genotype 1a R155K; assay type: cell-based, hepatitis C virus; settings: 72 h
[8] = test system: genotype 1a (H77) stable HCV replicon in Huh-7-derived cells; assay: Stable subgenomic HCV replicon EC50, genotype 1a (Renilla luciferase); assay type: cell-based, hepatitis C virus; settings: stable replicon genotype 1a, 72 h, read-out: EC50 1A RLUC
Procedure, shortened: as §1

[9] = test system: genotype 1a (H77) wild type transient HCV replicon in Huh-7-derived cells; assay: Transient-transfected HCV replicon EC50, genotype 1a wild type; assay type: cell-based, hepatitis C virus; settings: 72 h, transient-transfected replicon genotype 1a wild type, read-out: EC50 1A WT
[10] = test system: genotype 1b (Con1) stable HCV replicon in Huh-7-derived cells; assay: Stable subgenomic HCV replicon EC50, genotype 1b (Renilla luciferase); assay type: cell-based, hepatitis C virus; settings: stable replicon genotype 1b, 72 h, read-out: EC50 1B RLUC
Procedure, shortened: as §1

[11] = test system: genotype 1b NS3/4a protease inhibitor resistant variant D168A transient HCV replicon in Huh-7-derived cells; assay: Transient-transfected HCV replicon EC50, genotype 1b D168A; assay type: cell-based, hepatitis C virus; settings: 72 h
[12] = test system: genotype 3a (S52) stable HCV replicon in Huh-7-derived cells; assay: Stable subgenomic HCV replicon EC50, genotype 3a (Renilla luciferase); assay type: cell-based, hepatitis C virus; settings: 72 h, read-out: EC50 3A RLUC
[13] = Hepatitis C virus, read-out: EC50 1A R155K, transient-transfected replicon genotype 1a R155K resistant variant, 72 h
[14] = Hepatitis C virus, read-out: EC50 1B D168A, transient-transfected replicon genotype 1b D168A resistant variant, 72 h
[15] = stable replicon genotype 4a, Renilla luciferase
[16] = transient-transfected replicon genotype 1a R155K resistant variant, read-out: EC50 1A R155K
[17] = stable replicon genotype 3a, Renilla luciferase

HCV NS3 protease domain genotype 3a, sequence (Q81258 whole entry, looked up, the tested form may be a part): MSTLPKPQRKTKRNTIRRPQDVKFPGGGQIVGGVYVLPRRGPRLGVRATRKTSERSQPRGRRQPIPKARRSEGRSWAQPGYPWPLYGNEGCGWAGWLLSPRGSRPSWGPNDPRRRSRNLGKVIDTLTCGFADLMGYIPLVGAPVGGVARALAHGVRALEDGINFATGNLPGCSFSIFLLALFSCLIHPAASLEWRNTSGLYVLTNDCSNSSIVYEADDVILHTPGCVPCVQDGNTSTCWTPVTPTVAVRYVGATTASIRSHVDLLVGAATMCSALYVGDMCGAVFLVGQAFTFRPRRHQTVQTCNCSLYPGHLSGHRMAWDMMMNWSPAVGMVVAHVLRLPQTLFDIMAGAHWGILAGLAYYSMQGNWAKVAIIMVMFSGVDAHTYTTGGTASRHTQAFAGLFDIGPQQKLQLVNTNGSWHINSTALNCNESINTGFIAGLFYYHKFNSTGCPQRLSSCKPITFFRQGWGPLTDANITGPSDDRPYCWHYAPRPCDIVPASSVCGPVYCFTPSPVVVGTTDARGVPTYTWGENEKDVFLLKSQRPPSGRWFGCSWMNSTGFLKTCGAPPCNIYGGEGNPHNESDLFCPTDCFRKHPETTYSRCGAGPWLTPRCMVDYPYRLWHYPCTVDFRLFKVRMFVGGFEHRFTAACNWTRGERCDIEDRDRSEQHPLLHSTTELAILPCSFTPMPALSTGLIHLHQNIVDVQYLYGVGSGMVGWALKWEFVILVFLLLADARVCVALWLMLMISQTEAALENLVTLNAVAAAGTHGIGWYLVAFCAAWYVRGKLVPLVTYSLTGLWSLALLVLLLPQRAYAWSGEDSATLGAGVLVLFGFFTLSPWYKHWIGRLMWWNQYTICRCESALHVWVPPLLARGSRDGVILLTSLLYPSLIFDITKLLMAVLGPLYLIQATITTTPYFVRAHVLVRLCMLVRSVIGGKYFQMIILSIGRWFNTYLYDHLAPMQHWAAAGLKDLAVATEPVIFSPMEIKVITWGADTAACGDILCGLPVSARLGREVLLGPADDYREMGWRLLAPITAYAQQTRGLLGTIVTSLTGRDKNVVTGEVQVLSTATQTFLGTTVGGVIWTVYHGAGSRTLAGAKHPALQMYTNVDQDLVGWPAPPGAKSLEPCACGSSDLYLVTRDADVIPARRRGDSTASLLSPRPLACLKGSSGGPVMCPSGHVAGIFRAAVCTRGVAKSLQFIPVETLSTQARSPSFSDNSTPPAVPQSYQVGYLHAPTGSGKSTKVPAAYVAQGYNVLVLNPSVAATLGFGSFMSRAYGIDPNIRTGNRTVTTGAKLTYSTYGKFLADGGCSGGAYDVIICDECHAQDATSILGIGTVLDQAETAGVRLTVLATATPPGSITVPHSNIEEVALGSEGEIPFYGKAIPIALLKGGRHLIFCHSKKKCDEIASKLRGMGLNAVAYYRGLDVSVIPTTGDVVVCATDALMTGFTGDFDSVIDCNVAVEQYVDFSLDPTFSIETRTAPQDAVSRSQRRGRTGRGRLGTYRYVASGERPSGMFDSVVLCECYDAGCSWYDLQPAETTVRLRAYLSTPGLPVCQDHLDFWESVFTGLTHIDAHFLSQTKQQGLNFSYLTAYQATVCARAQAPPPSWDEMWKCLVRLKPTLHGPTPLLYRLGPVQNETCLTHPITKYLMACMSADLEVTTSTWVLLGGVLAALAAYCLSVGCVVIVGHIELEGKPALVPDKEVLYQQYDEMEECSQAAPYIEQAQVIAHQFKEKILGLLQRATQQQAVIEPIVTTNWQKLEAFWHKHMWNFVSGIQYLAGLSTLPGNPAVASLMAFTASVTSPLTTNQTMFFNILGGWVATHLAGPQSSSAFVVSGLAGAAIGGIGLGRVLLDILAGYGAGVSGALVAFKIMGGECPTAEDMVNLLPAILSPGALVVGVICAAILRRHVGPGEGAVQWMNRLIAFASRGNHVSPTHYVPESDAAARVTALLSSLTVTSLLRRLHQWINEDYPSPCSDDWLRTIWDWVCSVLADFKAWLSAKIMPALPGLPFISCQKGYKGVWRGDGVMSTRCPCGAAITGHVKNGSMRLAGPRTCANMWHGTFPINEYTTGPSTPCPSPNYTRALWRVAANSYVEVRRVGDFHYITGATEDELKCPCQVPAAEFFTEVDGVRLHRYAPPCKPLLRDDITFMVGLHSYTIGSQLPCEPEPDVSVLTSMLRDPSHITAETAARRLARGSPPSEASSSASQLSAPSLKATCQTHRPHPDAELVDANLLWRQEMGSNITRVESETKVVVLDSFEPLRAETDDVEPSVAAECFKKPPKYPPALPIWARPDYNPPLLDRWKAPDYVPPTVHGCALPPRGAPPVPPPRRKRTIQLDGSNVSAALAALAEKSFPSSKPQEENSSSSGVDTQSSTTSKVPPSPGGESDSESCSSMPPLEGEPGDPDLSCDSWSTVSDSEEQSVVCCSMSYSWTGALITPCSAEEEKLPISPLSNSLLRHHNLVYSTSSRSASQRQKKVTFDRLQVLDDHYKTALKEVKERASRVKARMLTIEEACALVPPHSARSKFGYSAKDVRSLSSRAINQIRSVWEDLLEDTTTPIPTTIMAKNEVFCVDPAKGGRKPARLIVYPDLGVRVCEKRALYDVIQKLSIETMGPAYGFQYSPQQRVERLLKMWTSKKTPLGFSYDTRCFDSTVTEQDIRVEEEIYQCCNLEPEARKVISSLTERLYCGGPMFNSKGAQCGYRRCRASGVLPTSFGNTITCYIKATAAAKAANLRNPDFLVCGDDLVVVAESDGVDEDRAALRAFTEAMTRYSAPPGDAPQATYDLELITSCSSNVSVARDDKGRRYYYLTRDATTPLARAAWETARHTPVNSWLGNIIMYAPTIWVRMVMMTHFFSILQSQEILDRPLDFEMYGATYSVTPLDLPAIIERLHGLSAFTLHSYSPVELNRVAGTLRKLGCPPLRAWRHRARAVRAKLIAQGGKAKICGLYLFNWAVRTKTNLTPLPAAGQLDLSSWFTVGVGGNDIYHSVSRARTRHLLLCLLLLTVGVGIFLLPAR
HCV NS3 protease domain genotype 1b, sequence (Q9WMX2 1027-1208 E1202G): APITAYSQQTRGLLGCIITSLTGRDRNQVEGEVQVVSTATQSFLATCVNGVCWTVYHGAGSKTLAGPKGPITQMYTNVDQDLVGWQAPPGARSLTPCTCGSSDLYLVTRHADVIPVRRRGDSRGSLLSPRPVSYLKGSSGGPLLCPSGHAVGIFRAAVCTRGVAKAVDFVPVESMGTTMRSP

| Compound | Ki [1] [nM] | EC50 ([2]; Hepatitis C virus) [nM] | Ki [4] [nM] | EC50 ([5]; Hepatitis C virus) [nM] | EC50 ([6]; Hepatitis C virus) [nM] | EC50 [7, 13] [nM] | EC50 ([8]; Hepatitis C virus) [nM] | EC50 ([9]; Hepatitis C virus) [nM] | EC50 ([10]; Hepatitis C virus) [nM] | EC50 [11, 14] [nM] | EC50 ([12]; Hepatitis C virus) [nM] | EC50 [2, 15] [nM] | EC50 [5] [nM] | EC50 [6] [nM] | EC50 [7, 16] [nM] | EC50 [8] [nM] | EC50 [9] [nM] | EC50 [10] [nM] | EC50 [12, 17] [nM] | also measured |
| --- | --- | --- | --- | --- | --- | --- | --- | --- | --- | --- | --- | --- | --- | --- | --- | --- | --- | --- | --- | --- |
| COc1ccc2nc3c(nc2c1)O[C@H]1CN(C(=O)[C@H](C(C)(C)C)NC(=O)O[C@@H]2C[C@@H]4C[C@@H]4[C@H]2CCCCC3)[C@H](C(=O)NC2(C(=O)NS(=O)(=O)C3CC3)C[C@H]2C(F)F)[C@@H]1C (stereo in doubt) [Example 33, (1aS,2aR,6S,9S,10S,11R,23aR,23bS)-6-tert-butyl-N-[(1 S,2R)-1-[(cyclopropylsulfonyl)carbamoyl]-2-(difluoromethyl)cyclopropyl]-15-methoxy-10-methyl-4,7-dioxo-1a,2,2a,4,5,6,7,10,11,19,20,21,22,23,23a,23b-hexadecahydro-1H,9H-8,11-methanocyclopropa[4′,5′]cyclopenta[1′,2′:18,19][1,10,3,6]dioxadiazacyclononadecino[11,12-b]quinoxaline-9-carboxamide] | 0.03 | 2.3 | 0.06 | 4.9 | 1.6 | 2.5 | 7.6 | 2.6 | 2.8 | 4.2 | 16 | – | – | – | – | – | – | – | – | EC50 ([3]; Hepatitis C virus): 5.3 nM |
| COc1ccc2nc3c(nc2c1)O[C@H]1CN(C(=O)[C@H](C(C)(C)C)NC(=O)O[C@@H]2C[C@H]2CCCCC3)[C@H](C(=O)N[C@]2(C(=O)NS(=O)(=O)C3(C)CC3)C[C@H]2C(F)F)[C@@H]1CC(C)C [Example 30, (1aR,5S,8S,9S,10R,22aR)-5-tert-butyl-N-[(1R,2R)-2-(difluoromethyl)-1-{[(1-methylcyclopropyl)sulfonyl]carbamoyl}cyclopropyl]-14-methoxy-9-(2-methylpropyl)-3,6-dioxo-1,1a,3,4,5,6,9,10,18,19,20,21,22,22a-tetradecahydro-8H-7,10-methanocyclopropa[18,19][1,10,3,6]dioxadiazacyclononadecino[11,12-b]quinoxaline-8-carboxamide] | 0.14 | 31 | 0.63 | 47 | 31 | 296 | 55 | 41 | 35 | 503 | 2440 | – | – | – | – | – | – | – | – | – |
| COc1ccc2nc3c(nc2c1)O[C@H]1CN(C(=O)[C@H](C(C)(C)C)NC(=O)O[C@@H]2C[C@H]2CCCCC3)[C@H](C(=O)N[C@]2(C(=O)NS(=O)(=O)C3(C)CC3)C[C@H]2C(F)F)[C@@H]1C1CC1 [Example 31, (1aR,5S,8S,9S,10R,22aR)-5-tert-butyl-9-cyclopropyl-N-[(1R,2R)-2-(difluoromethyl)-1-{[(1-methylcyclopropyl)sulfonyl]carbamoyl}cyclopropyl]-14-methoxy-3,6-dioxo-1,1a,3,4,5,6,9,10,18,19,20,21,22,22a-tetradecahydro-8H-7,10-methanocyclopropa[18,19][1,10,3,6]dioxadiazacyclononadecino[11,12-b]quinoxaline-8-carboxamide] | 0.13 | – | 4.9 | – | – | – | – | – | – | – | – | 20 | 63 | 6.6 | 154 | 40 | 27 | 18 | 2070 | EC50 ([11]; transient-transfected replicon genotype 1b D168A resistant variant, read-out: EC50 1B D168A): 805 nM |
| COc1ccc2nc3c(nc2c1)O[C@H]1CN(C(=O)[C@H](C2(C)CCCC2)NC(=O)O[C@@H]2C[C@H]2CCCCC3)[C@H](C(=O)N[C@]2(C(=O)NS(=O)(=O)C3(C)CC3)C[C@H]2C(F)F)[C@@H]1C [Example 38, (1aR,5S,8S,9S,10R,22aR)—N-[(1R,2R)-2-(difluoromethyl)-1-{[(1-methylcyclopropyl)sulfonyl]carbamoyl}cyclopropyl]-14-methoxy-9-methyl-5-(1-methylcyclopentyl)-3,6-dioxo-1,1a,3,4,5,6,9,10,18,19,20,21,22,22a-tetradecahydro-8H-7,10-methanocyclopropa[18,19][1,10,3,6]dioxadiazacyclononadecino[11,12-b]quinoxaline-8-carboxamide] | 0.03 | 5.5 | 0.7 | 5.4 | 2.8 | 8.4 | 7.8 | 4.5 | 4.2 | 25 | 151 | – | – | – | – | – | – | – | – | – |
| COc1ccc2nc3c(nc2c1)O[C@H]1CN(C(=O)[C@H](C(C)(C)C)NC(=O)O[C@@H]2CCN(C(C)=O)C2CCCCC3)[C@H](C(=O)N[C@]2(C(=O)NS(=O)(=O)C3(C)CC3)C[C@H]2C(F)F)[C@@H]1C (stereo partly drawn) [Example 80, (3aR,7S,10S,11S,12R)-1-acetyl-7-tert-butyl-N-[(1R,2R)-2-(difluoromethyl)-1-{[(1-methylcyclopropyl)sulfonyl]carbamoyl}cyclopropyl]-16-methoxy-11-methyl-5,8-dioxo-1,2,3,3a,5,6,7,8,11,12,20,21,22,23,24,24a-hexadecahydro-10H-9,12-methanopyrrolo[2′,3′:18,19][1,10,3,6]dioxadiazacyclononadecino[11,12-b]quinoxaline-10-carboxamide] | 0.49 | 1180 | 13 | 748 | 53 | 2860 | 1130 | 403 | 344 | 443 | 44400 | – | – | – | – | – | – | – | – | – |
| (1aR,5S,8S,9S,10R,22aR)-5-tert-butyl-N-[(1R,2R)-2-(difluoromethyl)-1-{[(1-methylcyclopropyl)sulfonyl]carbamoyl}cyclopropyl]-8-fluoro-14-methoxy-9-methyl-3,6-dioxo-1,1a,3,4,5,6,9,10,18,19,20,21,22,22a-tetradecahydro-8H-7,10-methanocyclopropa[18,19][1,10,3,6]dioxadiazacyclononadecino[1,12-b]quinoxaline-8-carboxamide [Example 47] | 0.07 | – | 0.19 | – | – | – | – | – | – | – | – | 4.2 | 12 | 2 | 6.1 | 3.8 | 5.4 | 3.6 | 58 | EC50 [3]: 17 nM |
